# According to US6844435B2, “Heterocyclic compounds useful as inhibitors of tyrosine kinases” (Boehringer Ingelheim Pharmaceuticals, Inc., priority 2000, dated 2005):
row,SMILES,melting point
1,CC(=O)OCC(=O)N1CCN(S(=O)(=O)c2cccc(-c3nc4ccc5nc(Nc6c(Cl)cccc6Cl)n(C)c5c4c(=O)[nH]3)c2)CC1 [Example 85],246 °C (dec.)
2,CCCCCC1NC(=O)c2c(ccc3nc(Nc4c(Cl)cccc4Cl)n(C)c23)N1C (stereo not shown) [Example 87],126 to 128 °C
3,CN1c2ccc3nc(Nc4c(Cl)cccc4Cl)n(C)c3c2C(=O)NC1c1ccccc1 (stereo not shown) [Example 88],228 to 230 °C
4,C/C(=C\c1cccc(CN)c1)c1nc2ccc3nc(Nc4c(Cl)cccc4Cl)n(C)c3c2c(=O)[nH]1 [Example 89],197 to 205 °C
5,Cn1c(Nc2c(Cl)cccc2Cl)nc2ccc3nc(-c4cccc(S(=O)(=O)N5CCN(C(=N)N)CC5)c4)[nH]c(=O)c3c21 [Example 90],215 °C
6,Cn1c(Nc2c(Cl)cccc2Cl)nc2ccc3nc(-c4cccc(S(=O)(=O)N5CCN(C(=O)CO)CC5)c4)[nH]c(=O)c3c21 [Example 91],> 300 °C
7,[H]/N=C(/N)c1cccc(/C=C(\C)c2nc3ccc4nc(Nc5c(Cl)cccc5Cl)n(C)c4c3c(=O)[nH]2)c1 [Example 92],> 300 °C
8,C/C(=C\c1cc(N)cc(N)c1)c1nc2ccc3nc(Nc4c(Cl)cccc4Cl)n(C)c3c2c(=O)[nH]1 [Example 99],195 to 200 °C (dec.)
9,C/C(=C\c1cccc(NC(=N)N)c1)c1nc2ccc3nc(Nc4c(Cl)cccc4Cl)n(C)c3c2c(=O)[nH]1 [Example 101],170 °C (dec.)
10,C/C(=C\c1ccccc1C#N)c1nc2ccc3nc(Nc4c(Cl)cccc4Cl)n(C)c3c2c(=O)[nH]1 [Example 102],284 to 288 °C
11,C/C(=C\c1cc(N/C(=N\C(=O)OC(C)(C)C)NC(=O)OC(C)(C)C)cc(N/C(=N\C(=O)OC(C)(C)C)NC(=O)OC(C)(C)C)c1)c1nc2ccc3nc(Nc4c(Cl)cccc4Cl)[nH]c3c2c(=O)[nH]1 [Example 103],> 300 °C

# More lines, now with the values ahead:
row,melting point,SMILES
1,206 to 208 °C,Cn1c(Nc2c(Cl)cccc2Cl)nc2ccc3nc(C4=CCN(C(=O)OC(C)(C)C)C4)[nH]c(=O)c3c21 [Example 83]
2,> 300 °C (dec.),C/C(=C\c1cccc(N)c1)c1nc2ccc3nc(Nc4c(Cl)cccc4Cl)n(C)c3c2c(=O)[nH]1 [Example 84]
3,240 to 241 °C (dec.),Cn1c(Nc2c(Cl)cccc2Cl)nc2ccc3nc(C4=CCNC4)[nH]c(=O)c3c21 [Example 86]
4,210 to 215 °C,Cn1c(Nc2c(Cl)cccc2Cl)nc2ccc3nc(C4=CC5CN(C(=O)OC(C)(C)C)CC5C4)[nH]c(=O)c3c21 (stereo not shown) [Example 94]
5,265 °C (dec.),Cn1c(Nc2c(Cl)cccc2Cl)nc2ccc3nc(C4=CC5CNCC5C4)[nH]c(=O)c3c21 (stereo not shown) [Example 95]
6,190 °C,Cn1c(Nc2c(Cl)cccc2Cl)nc2ccc3nc(-c4ccc(S(=O)(=O)N5CCN(C(=O)OC(C)(C)C)CC5)cc4)[nH]c(=O)c3c21 [Example 96]
7,290 °C (dec.),Cn1c(Nc2c(Cl)cccc2Cl)nc2ccc3nc(-c4csc([C@H]5CCCN5)n4)[nH]c(=O)c3c21 [Example 98]
8,246 °C,Cn1c(Nc2c(Cl)cccc2Cl)nc2ccc3nc(-c4ccc(S(=O)(=O)N5CCNCC5)cc4)[nH]c(=O)c3c21 [Example 100]
